From BindingDB's records for doi:10.1016/S0960-894X(02)01050-8 (The University of Texas At Houston, 2003) come the findings set out here.

Square brackets hold non-standard residues; d marks the D form. Peptide text beside a SMILES is read from it. ξ: configuration not given here. Phe(4-tetrazol-5-yl) = N[C@@H](Cc1ccc(-c2nnn[nH]2)cc1)C(=O)O; Phe(4-COOH) = N[C@@H](Cc1ccc(C(=O)O)cc1)C(=O)O; pY = N[C@@H](Cc1ccc(OP(=O)(O)O)cc1)C(=O)O; Thr(3ξ) = CC(O)[C@H](N)C(=O)O

Signal transducer and activator of transcription 3, sequence (P42227 whole entry, the tested form may be a part): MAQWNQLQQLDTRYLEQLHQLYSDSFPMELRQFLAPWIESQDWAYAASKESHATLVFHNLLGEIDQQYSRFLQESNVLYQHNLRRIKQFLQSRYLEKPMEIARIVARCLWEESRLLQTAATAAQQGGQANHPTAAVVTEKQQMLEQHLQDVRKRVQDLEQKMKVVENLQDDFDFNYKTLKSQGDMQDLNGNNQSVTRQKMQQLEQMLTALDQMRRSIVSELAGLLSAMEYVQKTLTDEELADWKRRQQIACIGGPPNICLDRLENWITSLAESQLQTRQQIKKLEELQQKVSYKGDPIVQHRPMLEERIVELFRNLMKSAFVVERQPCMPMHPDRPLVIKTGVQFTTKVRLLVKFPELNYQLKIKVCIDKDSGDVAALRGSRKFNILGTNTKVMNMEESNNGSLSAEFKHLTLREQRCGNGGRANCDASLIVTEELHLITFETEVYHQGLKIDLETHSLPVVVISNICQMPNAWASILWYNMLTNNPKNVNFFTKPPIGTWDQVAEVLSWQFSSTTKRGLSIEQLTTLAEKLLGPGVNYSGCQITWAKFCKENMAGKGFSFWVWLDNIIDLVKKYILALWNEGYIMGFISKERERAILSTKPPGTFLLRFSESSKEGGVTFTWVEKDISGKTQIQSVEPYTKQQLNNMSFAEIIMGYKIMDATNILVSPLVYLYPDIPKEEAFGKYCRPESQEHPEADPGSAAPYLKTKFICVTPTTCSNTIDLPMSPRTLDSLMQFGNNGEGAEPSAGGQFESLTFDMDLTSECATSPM

This assay has as its target Signal transducer and activator of transcription 3 (Mus musculus, UniProt P42227). In words: Electrophoretic Mobility Shift Assay (EMSA). The settings on record: pH 7.8; 22 °C. How it is done:
His10-Stat3 was expressed in Sf9 cells from a baculovirus encoding the recombinant protein. A nuclear extract of the Sf9 cells was incubated with 32P-labeled high affinity c-fos sis inducible element (hSIE) either alone or in the presence of inhibitor. After 20 min of incubation, samples were electrophoresed on polyacrylamide gels. The gels were dried, exposed to a phosphorimager screen and scanned. IC50 values were derived from plots of spot intensity versus phosphopeptide concentration. The affinity of peptides to the SH2 domain is measured by the intensity of the radioactivity of the Stat3-DNA complex band in the electrophoresis gel.
(In general: A gel shift assay detects complexes by their altered migration in electrophoresis.)
Regarding `CC(=O)N[C@@H](Cc1ccc(OP(=O)(O)O)cc1)C(=O)N[C@@H](CC(C)C)C(=O)N[C@@H](CCCN=C(N)N)C(=O)N[C@@H](CS)C(=O)N[C@@H](CC(=O)O)C(=O)N[C@@H](CO)C(N)=O` [(3S)-3-[(2R)-2-[(2S)-5-carbamimidamido-2-[(2S)-2-[(2S)-2-acetamido-3-[4-(phosphonooxy)phenyl]propanamido]-4-methylpentanamido]pentanamido]-3-sulfanylpropanamido]-3-{[(1S)-1-carbamoyl-2-hydroxyethyl]carbamoyl}propanoic acid] (Ac-[pY]LRCDS-NH2), the IC50 is 80 µM.
Under `CC(=O)N[C@@H](Cc1ccc(OP(=O)(O)O)cc1)C(=O)N[C@@H](CO)C(=O)N[C@@H](CC(=O)O)C(=O)NCC(=O)N[C@@H](CC(N)=O)C(=O)N[C@@H](Cc1ccccc1)C(N)=O` [Y(p)SDGNF] (Ac-[pY]SDGNF-NH2) stands over 150 µM; under `CC(=O)N[C@@H](Cc1ccc(OP(=O)(O)O)cc1)C(=O)N[C@@H](C)C(=O)N1CCC[C@H]1C(=O)N[C@@H](CCC(N)=O)C(=O)N[C@H](C(=O)N[C@H](C(N)=O)C(C)C)C(C)O` (some centres undefined) [Y(p)APQTV] (Ac-[pY]APQ[Thr(3ξ)]V-NH2), 1.6 µM; under `CC(=O)N[C@@H](Cc1ccc(OP(=O)(O)O)cc1)C(=O)N[C@@H](CCC(N)=O)C(=O)N[C@@H](CCCCN)C(=O)N[C@@H](CCC(N)=O)C(=O)N[C@H](C(=O)N[C@@H](CCCN=C(N)N)C(N)=O)C(C)O` (some centres undefined) [Y(p)QKQTR] (Ac-[pY]QKQ[Thr(3ξ)]R-NH2), 8 µM.
As for `CC(=O)N[C@@H](Cc1ccc(OP(=O)(O)O)cc1)C(=O)N[C@@H](CC(C)C)C(=O)N1CCC[C@H]1C(=O)N[C@@H](CC(N)=O)C(=O)N[C@H](C(=O)N[C@H](C(N)=O)C(C)C)C(C)O` (stereo partly drawn) [4-[(2S)-2-{[(2S)-1-[(2S)-2-{[(1S)-2-carbamoyl-1-{[(1S,2S)-1-{[(1S)-1-carbamoyl-2-methylpropyl]carbamoyl}-2-hydroxypropyl]carbamoyl}ethyl]carbamoyl}pyrrolidin-1-yl]-4-methyl-1-oxopentan-2-yl]carbamoyl}-2-acetamidoethyl]phenoxyphosphonic acid] (Ac-[pY]LPN[Thr(3ξ)]V-NH2), the figure is 2 µM; as for `CC(=O)N[C@@H](Cc1ccc(CP(=O)(O)O)cc1)C(=O)N[C@@H](CC(C)C)C(=O)N1CCC[C@H]1C(=O)N[C@@H](CCC(N)=O)C(=O)N[C@H](C(=O)N[C@H](C(N)=O)C(C)C)C(C)O` (stereo partly drawn) [({4-[(2S)-2-{[(2S)-1-[(2S)-2-{[(1S)-3-carbamoyl-1-{[(1S,2S)-1-{[(1S)-1-carbamoyl-2-methylpropyl]carbamoyl}-2-hydroxypropyl]carbamoyl}propyl]carbamoyl}pyrrolidin-1-yl]-4-methyl-1-oxopentan-2-yl]carbamoyl}-2-acetamidoethyl]phenyl}methyl)phosphonic acid], 8 µM.
As for `CC(=O)N[C@@H](Cc1ccc(-c2nnn[nH]2)cc1)C(=O)N[C@@H](CC(C)C)C(=O)N1CCC[C@H]1C(=O)N[C@@H](CCC(N)=O)C(=O)N[C@H](C(=O)N[C@H](C(N)=O)C(C)C)C(C)O` (stereo partly drawn) [(2S)-N-[(1S,2S)-1-{[(1S)-1-carbamoyl-2-methylpropyl]carbamoyl}-2-hydroxypropyl]-2-{[(2S)-1-[(2S)-2-[(2S)-2-acetamido-3-[4-(2H-1,2,3,4-tetrazol-5-yl)phenyl]propanamido]-4-methylpentanoyl]pyrrolidin-2-yl]formamido}pentanediamide] (Ac-[Phe(4-tetrazol-5-yl)]LPQ[Thr(3ξ)]V-NH2), the figure is over 6 µM; as for `CC(=O)N[C@@H](Cc1ccc(OP(=O)(O)O)cc1)C(=O)N[C@@H](CC(C)C)C(=O)N[C@@H](C)C(=O)N[C@@H](CCC(N)=O)C(=O)N[C@H](C(=O)N[C@H](C(N)=O)C(C)C)C(C)O` (stereo partly drawn) [4-[(2S)-2-{[(1S)-1-{[(1S)-1-{[(1S)-3-carbamoyl-1-{[(1S,2S)-1-{[(1S)-1-carbamoyl-2-methylpropyl]carbamoyl}-2-hydroxypropyl]carbamoyl}propyl]carbamoyl}ethyl]carbamoyl}-3-methylbutyl]carbamoyl}-2-acetamidoethyl]phenoxyphosphonic acid] (Ac-[pY]LAQ[Thr(3ξ)]V-NH2), 4 µM; as for `CC(=O)N[C@@H](Cc1ccc(C(=O)O)cc1)C(=O)N[C@@H](CC(C)C)C(=O)N1CCC[C@H]1C(=O)N[C@@H](CCC(N)=O)C(=O)N[C@H](C(=O)N[C@H](C(N)=O)C(C)C)C(C)O` (stereo partly drawn) [4-[(2S)-2-{[(2S)-1-[(2S)-2-{[(1S)-3-carbamoyl-1-{[(1S,2S)-1-{[(1S)-1-carbamoyl-2-methylpropyl]carbamoyl}-2-hydroxypropyl]carbamoyl}propyl]carbamoyl}pyrrolidin-1-yl]-4-methyl-1-oxopentan-2-yl]carbamoyl}-2-acetamidoethyl]benzoic acid] (Ac-[Phe(4-COOH)]LPQ[Thr(3ξ)]V-NH2), over 6 µM.
`CC(=O)N[C@@H](Cc1ccc(OP(=O)(O)O)cc1)C(=O)N[C@@H](CC(C)C)C(=O)N1CCC[C@H]1C(=O)N[C@@H](CCC(N)=O)C(=O)N[C@H](C(=O)N[C@H](C(N)=O)C(C)C)C(C)O` (stereo partly drawn) [4-[(2S)-2-{[(2S)-1-[(2S)-2-{[(1S)-3-carbamoyl-1-{[(1S,2S)-1-{[(1S)-1-carbamoyl-2-methylpropyl]carbamoyl}-2-hydroxypropyl]carbamoyl}propyl]carbamoyl}pyrrolidin-1-yl]-4-methyl-1-oxopentan-2-yl]carbamoyl}-2-acetamidoethyl]phenoxyphosphonic acid]: the IC50 stood at 0.15 µM.
As for `CC(=O)N[C@@H](Cc1ccc(OP(=O)(O)O)cc1)C(=O)N[C@@H](CC(C)C)C(=O)N1CCC[C@H]1C(=O)N[C@@H](C)C(=O)N[C@H](C(=O)N[C@H](C(N)=O)C(C)C)C(C)O` (some centres undefined) [Y(p)LPATV] (Ac-[pY]LPA[Thr(3ξ)]V-NH2), the figure is over 6 µM.
Turning to `CC(=O)N[C@@H](Cc1ccc(OP(=O)(O)O)cc1)C(=O)N[C@@H](CC(C)C)C(=O)N1CCC[C@H]1C(=O)N[C@@H](CCC(=O)O)C(=O)N[C@H](C(=O)N[C@H](C(N)=O)C(C)C)C(C)O` (stereo partly drawn) [(4S)-4-{[(1S,2S)-1-{[(1S)-1-carbamoyl-2-methylpropyl]carbamoyl}-2-hydroxypropyl]carbamoyl}-4-{[(2S)-1-[(2S)-2-[(2S)-2-acetamido-3-[4-(phosphonooxy)phenyl]propanamido]-4-methylpentanoyl]pyrrolidin-2-yl]formamido}butanoic acid] (Ac-[pY]LPE[Thr(3ξ)]V-NH2), the IC50 is over 6 µM.
Under `CC(=O)N[C@@H](Cc1ccc(OP(=O)(O)O)cc1)C(=O)N[C@@H](CC(C)C)C(=O)N1CCC[C@H]1C(=O)N[C@@H](CCC(N)=O)C(N)=O` (Ac-[pY]LPQ-NH2) stands 1 µM; under `CC(=O)N[C@@H](Cc1ccc(OP(=O)(O)O)cc1)C(=O)N[C@@H](CO)C(=O)N[C@H](C(=O)N[C@H](C(=O)N[C@H](C(=O)N[C@@H](Cc1cnc[nH]1)C(N)=O)C(C)C)C(C)C)C(C)O` (some centres undefined) [Y(p)STVVH] (Ac-[pY]S[Thr(3ξ)]VVH-NH2), over 150 µM; under `CC(=O)N[C@@H](Cc1ccc(OP(=O)(O)O)cc1)C(=O)N[C@@H](CC(C)C)C(=O)N[C@@H](CCCCN)C(=O)N[C@H](C(=O)N[C@@H](CCCCN)C(=O)N[C@@H](Cc1ccccc1)C(N)=O)C(C)O` (stereo partly drawn) [4-[(2S)-2-{[(1S)-1-{[(1S)-5-amino-1-{[(1S,2R)-1-{[(1S)-5-amino-1-{[(1S)-1-carbamoyl-2-phenylethyl]carbamoyl}pentyl]carbamoyl}-2-hydroxypropyl]carbamoyl}pentyl]carbamoyl}-3-methylbutyl]carbamoyl}-2-acetamidoethyl]phenoxyphosphonic acid] (Ac-[pY]LK[Thr(3ξ)]KF-NH2), 20 µM.
As for `CC(=O)N[C@@H](Cc1ccc(OP(=O)(O)O)cc1)C(=O)N[C@@H](CC(C)C)C(=O)N1CCC[C@H]1C(=O)N[C@@H](CCC(N)=O)C(=O)N[C@H](C(N)=O)C(C)O` (stereo partly drawn) [4-[(2S)-2-{[(2S)-1-[(2S)-2-{[(1S)-3-carbamoyl-1-{[(1S,2S)-1-carbamoyl-2-hydroxypropyl]carbamoyl}propyl]carbamoyl}pyrrolidin-1-yl]-4-methyl-1-oxopentan-2-yl]carbamoyl}-2-acetamidoethyl]phenoxyphosphonic acid] (Ac-[pY]LPQ[Thr(3ξ)]-NH2), the figure is 0.6 µM; as for `CC(=O)N[C@@H](Cc1ccc(OP(=O)(O)O)cc1)C(=O)N[C@@H](CC(C)C)C(=O)N1CCC[C@H]1C(N)=O` [Y(p)LP] (Ac-[pY]-Leu-Pro-NH2), over 6 µM; as for `CCC(C)[C@H](NC(=O)[C@H](Cc1ccc(OP(=O)(O)O)cc1)NC(C)=O)C(=O)N[C@@H](CC(N)=O)C(=O)N[C@@H](CCC(N)=O)C(=O)N[C@@H](CO)C(=O)N[C@H](C(N)=O)C(C)C` (some centres undefined) [Y(p)INQSV], 30 µM.
As for `CC(=O)N[C@@H](Cc1ccc(OP(=O)(O)O)cc1)C(=O)N[C@@H](CC(C)C)C(=O)N1CCC[C@H]1C(=O)N[C@@H](CCC(N)=O)C(=O)N[C@H](C(=O)N[C@@H](C)C(N)=O)C(C)O` (stereo partly drawn) [4-[(2S)-2-{[(2S)-1-[(2S)-2-{[(1S)-3-carbamoyl-1-{[(1S,2S)-1-{[(1S)-1-carbamoylethyl]carbamoyl}-2-hydroxypropyl]carbamoyl}propyl]carbamoyl}pyrrolidin-1-yl]-4-methyl-1-oxopentan-2-yl]carbamoyl}-2-acetamidoethyl]phenoxyphosphonic acid] (Ac-[pY]LPQ[Thr(3ξ)]A-NH2), the figure is 0.4 µM.

In general, IC50 refers to the concentration that gives 50% inhibition.
